# From patent US20200131495A1, “PROTEINS DERIVED FROM CLPB AND USES THEREOF” (priority 2017, published 2020)
# Legend:
# MC3R = MC3R (Mus musculus, UniProt P33033); details: Ericson et al., 2015; cited from earlier work
# MC1R = MC1R (Mus musculus, UniProt Q01727); details: Ericson et al., 2015; cited from earlier work
# MC4R = MC4R (Mus musculus, UniProt P56450); details: Ericson et al., 2015; cited from earlier work
# MCSR = MCSR (Mus musculus, UniProt P41149); details: Ericson et al., 2015; cited from earlier work
# MCSR, sequence (P41149 whole entry): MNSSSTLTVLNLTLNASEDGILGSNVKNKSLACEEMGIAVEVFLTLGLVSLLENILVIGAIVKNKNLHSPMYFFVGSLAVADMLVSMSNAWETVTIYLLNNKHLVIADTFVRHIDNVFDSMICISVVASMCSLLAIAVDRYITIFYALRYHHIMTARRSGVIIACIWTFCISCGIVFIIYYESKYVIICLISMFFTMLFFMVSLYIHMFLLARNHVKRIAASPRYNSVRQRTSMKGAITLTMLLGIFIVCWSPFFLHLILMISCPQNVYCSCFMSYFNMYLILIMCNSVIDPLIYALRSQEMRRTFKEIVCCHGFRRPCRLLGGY
# [1] = system: intestinal tissues from rats (colons and ileums); experiment: PYY secretion experiment in rat colons and ileums; type: cell-based; details: 10 nM, 20 min, control PBS, FIG. 6
# Procedure: Colons and ileums were removed from male rats (Janvier Labs, Genest-Saint-Isle, France). They were washed with ice-cold PBS, then with ice-cold L-15 (Leibowitz) medium (PAA, Yeovil, UK). Then they were digested with 0.4 mg/mL collagenase XI (Sigma, Poole, UK) in High-Glucose DMEM (+1% L-Glutamine+1% Penicillin+1% Streptomycin+1% and non-essential amino acids) at 37° C. during 10 min. Cells suspensions were centrifuged (10 min at 400 g) and the pellets were resuspended in High-Glucose DMEM (the same that previously but with 10% Fetal Bovine Serum (FBS). Cell suspensions were filtered through a nylon mesh (pore size 100 Jpm) (Merck Millipore, Mass., USA) and plated onto 24 well, 1% Matrigel-coated plates (Corning, N.Y., US). The plates were incubated overnight at 37° C. in an atmosphere of […] and 5% CO2.
# After 24 hours of culture, cells were incubated for 20 min in a water bath with secretion buffer (4 mM KCl, 138 mM NaCl, 1.2 mM NaHCO3, 1.2 mM NaH2PO4, 2.6 mM CaCl2), 1.2 mM MgCl2 and 10 mM HEPES) adjusted at pH 7.4) and full-length ClpB or the ˜25 kDa fragment at a concentration of 10 nM. […]
# After incubation, the cells were treated with lysis buffer (50 mmol/L Tris-HCl, 150 mmol/L NaCl, 1% IGEPAL CA-630, 0.5% deoxycholic acid+cocktail of protease inhibitor tablets complete without EDTA) to extract intracellular peptides. […] Lysates were stored at −80° C. if not analyzed immediately. […]
# [2] = Food intake of mice in BioDAQ cages after i.p. or oral administration; type: in vivo; details: for food intake in mice, oral administration: 60 pmol in 200 μL, FIG. 8
# Procedure: Male C57/B16 mice were placed in the BioDAQ mouse cages (Research Diets, Inc., New Brunswick, N.J.) alone to measure the food intake. Each mouse was administered either physiological serum (n=6), full-length ClpB, or fragment of ˜25 kDa.
# Two modes of administration were tested: intraperitoneal (i.p.) injection at a concentration of 2 pmol in a volume of 200 μL (n=8), and oral administration at a concentration of 60 pmol in a volume of 200 μL (n=10).
# anti-α-MSH antibody = experiment: Western blot revealed with anti-α-MSH antibody; type: binding, rabbit; details: FIG. 3 (trypsinised ClpB); FIG. 4 (colic mucosa, hypothalamus, plasma of mice and rats)
# Procedure: First the fragmentation was performed on different conditions: ClpB diluted at 1/10 (from the stock at 5 mg/mL) and ClpB 1/10 with 0.0025% trypsin. Those different conditions were placed during 20 minutes at 37° C. After incubation, the fragmentation was immediately stopped by placing tubes on ice and western blot was performed.
# After fragmentation, Leamli solution without J-mercaptoethanol was added into tubes to perform western on 20% acrylamide SDS gel in Tris-Glycine buffer (BioRad, Hercules, USA) and transferred to a nitrocellulose membrane (GE Healthcare, Orsay, France). Then, the membrane was blocked for at least 1 h at room temperature with 5% (w/v) non-fat dry milk in TBS (10 mmol/L Tris, pH 8; 150 mmol/L NaCl) plus 0.05% (w/v) Tween 20. After blocking, the […] The membrane was incubated overnight at 4° C. with rabbit polyclonal anti-α-MSH antibodies (1:1000, Phoenix Pharmaceuticals). After three washes in a blocking solution of 5% (w/v) non-fat dry milk in TBS/0.05% Tween 20, membranes were incubated for 1 h with peroxidase-conjugated anti rabbit IgG (1:1000, SantaCruz Biotechnology). […]
# Tissues were incubated with extracted buffer (PBS+protease inhibitor (1%)). The volume added depends of sample quantity. […] The supernatant was stored at −80° C. if not analysed immediately. […]
# MC4R, sequence (P56450 whole entry): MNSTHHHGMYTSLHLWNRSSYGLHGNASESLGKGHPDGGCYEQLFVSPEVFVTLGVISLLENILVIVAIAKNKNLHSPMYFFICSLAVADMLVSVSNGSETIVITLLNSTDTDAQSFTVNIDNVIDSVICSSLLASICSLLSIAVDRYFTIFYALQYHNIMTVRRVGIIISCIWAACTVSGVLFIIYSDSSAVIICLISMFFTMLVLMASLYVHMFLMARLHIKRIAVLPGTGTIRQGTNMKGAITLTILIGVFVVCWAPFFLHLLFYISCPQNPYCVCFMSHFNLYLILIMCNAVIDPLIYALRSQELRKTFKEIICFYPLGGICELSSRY
# MC1R, sequence (Q01727 whole entry): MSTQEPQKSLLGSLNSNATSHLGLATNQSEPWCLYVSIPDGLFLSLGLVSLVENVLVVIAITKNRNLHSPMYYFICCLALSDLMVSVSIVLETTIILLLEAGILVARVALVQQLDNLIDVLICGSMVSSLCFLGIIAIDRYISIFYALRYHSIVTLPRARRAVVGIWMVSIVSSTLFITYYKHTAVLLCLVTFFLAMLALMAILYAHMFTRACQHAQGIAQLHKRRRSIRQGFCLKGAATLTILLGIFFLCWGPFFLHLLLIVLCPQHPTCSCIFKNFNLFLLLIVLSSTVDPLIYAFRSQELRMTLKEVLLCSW
# MC3R, sequence (P33033 whole entry): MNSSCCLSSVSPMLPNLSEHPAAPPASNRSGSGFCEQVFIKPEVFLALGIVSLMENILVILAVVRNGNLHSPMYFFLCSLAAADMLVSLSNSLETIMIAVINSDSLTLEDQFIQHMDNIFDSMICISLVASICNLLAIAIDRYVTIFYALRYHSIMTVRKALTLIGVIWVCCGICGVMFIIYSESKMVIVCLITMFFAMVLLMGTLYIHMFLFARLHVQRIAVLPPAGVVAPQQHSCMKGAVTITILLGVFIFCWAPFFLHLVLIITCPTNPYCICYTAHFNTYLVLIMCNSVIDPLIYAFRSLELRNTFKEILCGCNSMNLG
Substance,activity on MC3R (MC3R),MC1R agonist activity (MC1R),activity on MC4R (MC4R),activity on MCSR (MCSR),PYY secretion compared to the control [1],"duration of the decrease of food intake ([2]; i.p. 2 pmol and oral 60 pmol in 200 μL, FIGS. 7 and 8)","food intake in mice ([2]; i.p. 2 pmol and oral 60 pmol in 200 μL, FIGS. 7 and 8, compared with full-length ClpB protein)","food intake in mice, oral administration [2]",recognition by anti-α-MSH antibodies (Western blot) (anti-α-MSH antibody)
AEIAEVLARWTGIPV (ClpB fragment) [modified short ClpB fragment studied by Ericson et al],partial activities,full micromolar MC1R agonist,not on MC4R,partial activities,–,–,–,–,–
"fragment of ˜25 kDa: sequence of ClpB from amino acid 537 to amino acid 756 (SEQ ID NO: 22), produced by trypsinisation of ClpB",–,–,–,–,increase PYY secretion,at least 90 min,decreases food intake in mice at least as much as the full-length ClpB protein,decreases food intake,revealed with polyclonal anti-α-MSH
"full-length ClpB: chaperone protein ClpB (caseinolytic protease B), ˜96 kDa, 857 amino acids, from E. Coli K12",–,–,–,–,increase PYY secretion,–,–,no such effect,–
